Experimental data taken from patent US8962627B2, “Oxime derivatives and their use as allosteric modulators of metabotropic glutamate receptors” (Prestwick Chemical, Inc., priority 2009, dated 2015).
Counter-ions that a name gives are not always drawn.

Target: T1, human mGluR4 transiently over-expressed in HEK-293 cells (Homo sapiens, UniProt Q14833)
T1 construct: expressed in transfected cells; host or cells: HEK-293 cells, transient co-transfection by electroporation
Test: Human mGluR4 positive allosteric modulator evaluation using Ca++ functional assay
Format: cell-based
Details: HEK-293 cells co-transfected with hmGluR4 and chimeric G protein; EC10 glutamate; intracellular calcium (Fluo4AM); read-out: mean EC50 of agonist/positive allosteric modulator activity on mGluR4
Protocol: Human mGluR4 Positive Allosteric Modulator Evaluation Using Ca^++ Functional Assay
Compounds of the present invention were tested successively for their agonist and positive allosteric modulator activities on human mGluR4 transiently over-expressed in HEK-293 cells. They exert agonist activity if, by themselves in absence of the endogenous glutamate, they are able to activate mGluR4; and they exert positive allosteric modulator activity if they increase the action of the endogenous glutamate.
Cell Culture and Transfection
HEK-293 cells were maintained in Modified Eagle's Medium supplemented with 10% Foetal Calf Serum, 1% Penicillin/Streptomycin and 1% non essential amino acids at 37° C./5% CO2.
Cells were co-transfected by electroporation with two DNA plasmids encoding hmGluR4 and a chimeric G protein allowing redirection of the activation signal to intracellular calcium pathway. Cells were plated after transfection onto polyornithine coated, clear bottom, black-walled, 96-well plates and cultured for 24 h.
Calcium Assay EC50 Determination
Receptor activity was detected by changes in intracellular calcium measured using the fluorescent Ca^2+ sensitive dye, Fluo4AM (Molecular Probes).
The day of the assay, medium was aspirated and replaced during 3 hours by medium without serum supplemented with 1% Glutamax, 1% Penicillin/Streptomycin and 1% non essential amino acids. Then, cells were washed with freshly prepared buffer B (HBSS 1×(PAA), Hepes 20 mM, MgSO4-7H2O 1 mM, Na2CO3 3.3 mM, CaCl2-2H2O 1.3 mM, 0.5% BSA, Probenecid 2.5 mM) and loaded at 37° C. in 5% CO2 for 1.5 hours with buffer B containing 1 μM Fluo4AM 0.1 mg/mL Pluronic Acid, 7 μg/mL Glutamate Pyruvate Transaminase and 2 mM sodium pyruvate. Afterwards cells were washed twice with buffer B and 50 μL of this buffer were added to each well. Addition of compounds and intracellular Ca^2+ measurements (excitation 485 nm, emission 525 nm) were performed by the fluorescence microplate reader FlexStation (Molecular Devices).
Agonist and positive allosteric modulator activities of compounds were consecutively evaluated on the same cells plate. Agonist activity was first tested during 60 s with the addition of compound alone on the cells. Then, the cells were stimulated by an EC10 glutamate concentration and fluorescence recorded for additional 60 s. EC10 glutamate concentration is the concentration giving 10% of the maximal glutamate response. Agonist and/or positive allosteric modulator activity(ies) were evaluated in comparison to basal signal evoked by EC10 glutamate alone.
For EC50 determination, a dose-response test was performed using 6 to 9 concentrations of each compound of the invention. Dose-response curves were fitted using the sigmoidal dose-response (variable slope) analysis in GraphPad Prism program (Graph Pad Inc) and EC50 of agonist/positive allosteric modulator activity was calculated. Dose-response experiments were all performed in duplicate, two times independently.

T1 sequence (Q14833 33-912): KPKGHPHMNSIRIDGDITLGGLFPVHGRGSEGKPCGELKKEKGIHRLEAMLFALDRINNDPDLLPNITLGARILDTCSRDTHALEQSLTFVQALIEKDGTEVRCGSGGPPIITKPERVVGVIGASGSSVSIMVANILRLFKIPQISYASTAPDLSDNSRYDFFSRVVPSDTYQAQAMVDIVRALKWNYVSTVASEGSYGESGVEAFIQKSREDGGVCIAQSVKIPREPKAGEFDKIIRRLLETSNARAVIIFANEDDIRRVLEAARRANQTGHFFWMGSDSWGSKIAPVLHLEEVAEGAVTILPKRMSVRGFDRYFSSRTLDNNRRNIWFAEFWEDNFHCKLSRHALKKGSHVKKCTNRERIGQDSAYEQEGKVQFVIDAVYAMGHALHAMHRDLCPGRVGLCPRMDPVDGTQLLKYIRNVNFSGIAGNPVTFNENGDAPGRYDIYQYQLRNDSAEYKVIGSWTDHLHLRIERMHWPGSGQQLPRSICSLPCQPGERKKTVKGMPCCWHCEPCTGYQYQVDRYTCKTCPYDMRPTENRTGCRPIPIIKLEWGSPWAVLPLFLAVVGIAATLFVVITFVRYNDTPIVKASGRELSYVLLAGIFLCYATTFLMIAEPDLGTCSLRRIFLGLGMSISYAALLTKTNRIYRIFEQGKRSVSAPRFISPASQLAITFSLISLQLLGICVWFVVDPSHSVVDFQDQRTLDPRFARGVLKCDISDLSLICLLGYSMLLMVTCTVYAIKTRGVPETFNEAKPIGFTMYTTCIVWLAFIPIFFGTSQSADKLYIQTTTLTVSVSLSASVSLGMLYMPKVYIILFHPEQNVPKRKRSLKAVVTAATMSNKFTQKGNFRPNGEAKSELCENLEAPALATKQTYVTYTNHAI

| EC50 [nM] | SMILES |
| --- | --- |
| < 1000 | ON=c1cc(-c2cc3cccn3cn2)oc2ccc(OCCCOc3ccc(F)cc3)cc12 [Example 161, 6-[3-(4-Fluoro-phenoxy)-propoxy]-2-pyrrolo[1,2-c]pyrimidin-3-yl-chromen-4-one oxime] |
| < 5000 | CCN1CCN(CCOc2ccc3oc(-c4cc5cccn5cn4)cc(=NO)c3c2)CC1.Cl.Cl [Example 121, 6-[2-(4-ethyl-piperazin-1-yl-ethoxy]-2-pyrrolo[1,2-c]pyrimidin-3-yl-chromen-4-one oxime, dihydrochloride] |
| < 1000 | ON=c1cc(-c2cc3nccn3cn2)oc2ccccc12 (mixture of isomers) [Example 73, 2-Imidazo[1,2-c]pyrimidin-7-yl-chromen-4-one oxime] |
| < 1000 | ON=c1cc(-c2cc3cccn3cn2)oc2ccc(OCCc3ccc(F)cc3)cc12 [Example 109, 6-[2-(4-fluoro-phenyl)-ethoxy]-2-pyrrolo[1,2-c]pyrimidin-3-yl-chromen-4-one oxime, hydrochloride] |
| < 1000 | ON=c1cc(-c2cc3cnccc3cn2)oc2ccccc12 [Example 61, 2-[2,6]Naphthyridin-3-yl-chromen-4-one oxime] |
| < 1000 | ON=c1cc(-c2cc3ccccc3cn2)oc2cc(C#Cc3ccccc3)ccc12 (mixture of isomers) [Example 20, 2-isoquinolin-3-yl-7-phenylethynyl-chromen-4-one oxime] |
| < 1000 | ON=c1cc(-c2cc3cccn3cn2)oc2ccc(OCCCOc3cccc(F)c3)cc12 [Example 163, 6-[3-(3-Fluoro-phenoxy)-propoxy]-2-pyrrolo[1,2-c]pyrimidin-3-yl-chromen-4-one oxime] |
| < 1000 | CNc1cccc(C#Cc2ccc3c(=NO)cc(-c4cc5ccccc5cn4)oc3c2)c1 (mixture of isomers) [Example 51, 2-Isoquinolin-3-yl-7-{3-methylaminophenylethynyl}-chromen-4-one oxime] |
| < 1000 | ON=c1cc(-c2cc3cccn3cn2)oc2ccc(O)cc12 [Example 81, 6-Hydroxy-2-pyrrolo[1,2-c]pyrimidin-3-yl-chromen-4-one oxime] |
| < 5000 | ON=c1cc(-c2cc3ccn(O)c3cn2)oc2ccccc12 [Example 76, 2-(1-Hydroxy-7H-pyrrolo[2,3-c]pyridin-5-yl)-chromen-4-one oxime] |
| < 1000 | ON=c1cc(-c2cc3sccc3cn2)oc2ccc(OCCc3ccc(F)cc3)cc12 [Example 130, 6-[2-(4-Fluoro-phenyl)-ethoxy]-2-thieno[3,2-c]pyridin-6-yl-chromen-4-one oxime] |
| < 1000 | O=C(COc1ccc2oc(-c3cc4cccn4cn3)cc(=NO)c2c1)Nc1ccc(F)cn1 [Example 152, N-(5-Fluoro-pyridin-2-yl)-2-{4-hydroxyimino-2-pyrrolo[1,2-c]pyrimidin-3-yl-4H-chromen-6-yloxy}-acetamide] |
| < 1000 | ON=c1cc(-c2cc3cccn3cn2)oc2ccc(OCCN3C[C@@H]4C[C@H]3CO4)cc12 [Example 111, 6-[(1S,4S)-2-(2-oxa-5-aza-bicyclo[2.2.1]hept-5-yl)-ethoxy]-2-pyrrolo[1,2-c]pyrimidin-3-yl-chromen-4-one oxime, hydrochloride] |
| < 5000 | Cc1c(-c2cc3ccccc3cn2)oc2ccccc2c1=NO [Example 71, 2-Isoquinolin-3-yl-3-methyl-chromen-4-one oxime] |
| < 1000 | ON=c1cc(-c2cc3cccn3cn2)oc2ccc(OCCN3CCC(C(F)(F)F)CC3)cc12 [Example 113, 2-pyrrolo[1,2-c]pyrimidin-3-yl-6-[2-(4-trifluoromethyl-piperidin-1-yl)-ethoxy]chromen-4-one oxime, hydrochloride] |
| < 5000 | ON=c1cc(-c2cc3ccccc3cn2)oc2ccc(C3CC3)cc12 (mixture of isomers) [Example 34, 6-cyclopropyl-2-isoquinolin-3-yl-chromen-4-one oxime] |
| < 1000 | COCCOc1ccc2oc(-c3cc4cccn4cn3)cc(=NO)c2c1 [Example 67, 6-methoxyethoxy-2-Pyrrolo[1,2-c]pyrimidin-3-yl-chromen-4-one oxime] |
